Where “and” joins values, the source holds several entries; their conditions need not be identical. Identical values can stand only once. Like-named read-outs stand apart in the source and are kept apart here.

Assay [1] has as its target T1, PGI2-binding sites (3H-iloprost receptors) on human hypernephroma cells (Homo sapiens, UniProt P43119).
T1 construct: endogenous in cells; host or cells: primary cultures of human renal cell carcinoma (hypernephroma) cells, one line per patient
The assay is described as follows: Saturation binding of 3H-iloprost to cultured hypernephroma cells (Scatchard analysis). The following applies: mean of cell lines.

The test system of assay [2] is PGE1-binding sites (3H-PGE1-receptors) on human hypernephroma cells. The assay is described as follows: Saturation binding of 3H-PGE1 to cultured hypernephroma cells (Scatchard analysis). The following applies: for Bmax, 3H-PGE1 binding, Table II: individual cell lines; for Bmax (binding capacity), 3H-PGE1 binding / Kd: mean of cell lines; for Kd: read-out: Kd (dissociation constant), 3H-PGE1 binding.

For assay [3], the system named is PG binding sites on human hypernephroma cells. Kind of assay: Time course of specific 3H-PG binding (association, dissociation). The following applies: 3H-iloprost, 3H-PGE1 each 84 nM, 3H-PGE2 45 nM; stable for at least 80 min.
[4] abbreviates: control group (group 1), no ASA, no irradiation.
[5] abbreviates: control group irradiated (group 3), 60Co 1.0 Gy min-1 over 10 min, assay about 2 h after.
The mark [6] stands for this setting: ASA-treated group (group 2), ASA 0.5 mg 10-6 cells for 24 h.
Where [7] appears, read: ASA-treated group irradiated (group 4), listed as 3H-PGE1.
Where [8] appears, read: control group (group 1), no ASA, no irradiation, listed as 3H-PGE1.

T1 sequence (P43119 whole entry): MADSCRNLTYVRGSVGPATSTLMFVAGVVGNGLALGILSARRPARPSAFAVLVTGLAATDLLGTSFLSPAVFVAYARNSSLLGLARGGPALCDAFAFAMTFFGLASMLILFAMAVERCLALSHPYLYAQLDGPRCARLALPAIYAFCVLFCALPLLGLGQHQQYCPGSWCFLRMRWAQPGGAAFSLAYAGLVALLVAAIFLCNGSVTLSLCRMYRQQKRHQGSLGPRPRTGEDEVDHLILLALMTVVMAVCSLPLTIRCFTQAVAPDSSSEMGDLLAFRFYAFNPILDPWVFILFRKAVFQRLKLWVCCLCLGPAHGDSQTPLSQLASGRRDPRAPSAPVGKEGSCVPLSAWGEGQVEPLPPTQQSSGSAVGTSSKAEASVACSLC

Regarding `CCCCC[C@H](O)/C=C/[C@@H]1[C@H]2C/C(=C/CCCC(=O)O)O[C@H]2C[C@H]1O` [PGI2], the “Bmax (binding capacity), 3H-iloprost binding” value in assay [1] (setting [4]) is listed as 693 +/- 164 fmol mg-1 protein; in assay [1] (setting [5]) it was 325 +/- 194 fmol mg-1 protein.
`CCCCC[C@H](O)/C=C/[C@H]1[C@H](O)CC(=O)[C@@H]1CCCCCCC(=O)O` [PGE1]: the “Bmax, 3H-PGE1 binding, Table II” value is 811 fmol mg-1 protein and 923 fmol mg-1 protein and 1076 fmol mg-1 protein and 1019 fmol mg-1 protein and 1367 fmol mg-1 protein and 897 fmol mg-1 protein and 1773 fmol mg-1 protein and 736 fmol mg-1 protein and 1064 fmol mg-1 protein and 1171 fmol mg-1 protein in assay [2] (ASA (group 2), patients 1,3,4,5,6,7,8,9,10,11 in order, listed as 3H-PGE1); 781 fmol mg-1 protein and 372 fmol mg-1 protein and 978 fmol mg-1 protein and 911 fmol mg-1 protein and 694 fmol mg-1 protein and 893 fmol mg-1 protein and 1041 fmol mg-1 protein and 643 fmol mg-1 protein and 555 fmol mg-1 protein and 685 fmol mg-1 protein in assay [2] (control (group 1), patients 1,3,4,5,6,7,8,9,10,11 in order, listed as 3H-PGE1); 679 fmol mg-1 protein and 867 fmol mg-1 protein and 615 fmol mg-1 protein and 268 fmol mg-1 protein and 884 fmol mg-1 protein and 879 fmol mg-1 protein in assay [2] (irradiation, ASA (group 4), patients 3,6,7,9,10,11 in order, listed as 3H-PGE1); 267 fmol mg-1 protein and 504 fmol mg-1 protein and 301 fmol mg-1 protein and 137 fmol mg-1 protein and 319 fmol mg-1 protein and 68 fmol mg-1 protein in assay [2] (irradiation, control (group 3), patients 3,6,7,9,10,11 in order, listed as 3H-PGE1). The “Bmax (binding capacity), 3H-PGE1 binding” value in assay [2] (setting [6]) is 1084 +/- 303 fmol mg-1 protein; in assay [2] (ASA-treated group (group 2), ASA 0.5 mg 10-6 cells for 24 h, listed as 3H-PGE1), 1084 fmol mg-1 protein; in assay [2] (ASA-treated group irradiated (group 4)), 699 +/- 240 fmol mg-1 protein; in assay [2] (setting [7]), 699 fmol mg-1 protein; in assay [2] (setting [4]) it was 755 +/- 206 fmol mg-1 protein; in assay [2] (setting [8]) it was 755 fmol mg-1 protein. In addition, the “Bmax (binding capacity), 3H-PGE1 binding” value is given as 266 +/- 153 fmol mg-1 protein in assay [2] (setting [5]) and 266 fmol mg-1 protein in assay [2] (control group irradiated (group 3), 60Co 1.0 Gy min-1 over 10 min, assay about 2 h after, listed as 3H-PGE1). In addition, the Kd was 2.8 ± 1.3 nM in assay [2] (setting [6]); 3 nM in assay [2] (setting [7]); about 4 nM in assay [2] (setting [8]); 3.7 ± 2.7 nM in assay [2] (setting [4]); 5 ± 5 nM in assay [2] (setting [5]). Also, in assay [3], the “time to reach binding equilibrium” value is given as at most 20 min.

As a reminder, the Kd is a measure of binding affinity in units of concentration.

The values are drawn from article PMC1968618, “Acetylsalicylic acid (ASA) protects the prostaglandin-cAMP-system of human hypernephroma cells against irradiation-induced alterations” (British Journal of Cancer, 1993).
